Test results as given in patent US11065293B2 (priority 2016, dated 2021).

B1: G-CSF: granulocyte colony stimulating factor, given day 2 to day 4 after cyclophosphamide; contrast group of leukopenia experiment (protein, UniProt P09919 31-207, looked up)
Granulocyte …: TPLGPASSLPQSFLLKCLEQVRKIQGDGAALQEKLVSECATYKLCHPEELVLLGHSLGIPWAPLSSCPSQALQLAGCLSQLHSGLFLYQGLLQALEGISPELGPTLDTLQLDVADFATTIWQQMEELGMAPALQPTQGAMPAFASAFQRRAGGVLVASHLQSFLEVSYRVLRHLAQP

How the values were obtained:
Format in all cases: in vivo, rats
[1] = tail flick latency after Taxol-induced pain; details: Taxol 20 mg/kg day 0 to day 5; day 3, day 7 and day 14; composition 21 days twice daily, vs contrast group
Protocol: To understand the effect of presented pharmaceutical composition on cancer pain, the experiment was following: 6 to 7 week-old female rats (20-24 grams, ICR) were divided into control group, contrast group and experimental group. […] In contrast group and experimental group, rats were administered Taxol® (20 mg/kg) from day 0 to day 5 to induce the pain. Besides, the experimental group were also treated with presented pharmaceutical composition for 7 days before administered Taxol®, and continuously treated for 14 days after administered Taxol®. Therefore, the total days of presented pharmaceutical composition administered in experimental group is 21 days. The administered method is twice daily, and the dosage was 0.5-1.67 uL/mouse. On day 3, 7 and 14 during the drug administration, the tail flick latency (Tail-Flick Unit 37360) was conducted. The tail flick latency is used to evaluate the degree of change of pain threshold by heating the tail of rat through infrared.

[2] = organ weight after Taxol administration; details: day 15, contrast group (Taxol) vs control group, experimental group even lower than control group
Excerpt: Cancer pain is a kind of pain caused by cancer, which is most common symptoms and most feared symptoms for patients. If the pain is not controlled properly, the life quality of patients would be affected severely. To understand the effect of presented pharmaceutical composition on cancer pain, the experiment was following: 6 to 7 week-old female rats (20-24 grams, ICR) were divided into control group, contrast group and experimental group. In control group, rats were not gave any medication. In contrast group and experimental group, rats were administered Taxol® (20 mg/kg) from day 0 to day 5 to induce the pain. Besides, the experimental group were also treated with presented pharmaceutical composition for 7 days before administered Taxol®, and continuously treated for 14 days after administered Taxol®. Therefore, the total days of presented pharmaceutical composition administered in experimental group is 21 days. The administered method is twice daily, and the dosage was 0.5-1.67 uL/mouse. On day 3, 7 and 14 during the drug administration, the tail flick latency (Tail-Flick Unit 37360) was conducted. The tail flick latency is used to evaluate the degree of change of pain threshold by heating the tail of rat through infrared.
Organ hypertrophy is common side effect induced by chemotherapy drugs. To understand the impact of the presented pharmaceutical compositions on organs, the female rats of example 5 were sacrificed on day 15. The heart, liver, spleen and kidney acquired from rats were weighted respectively.

white blood cells = details: for the numbers of white blood cell, Day 0 before chemotherapy: day 0 before cyclophosphamide, experimental group pretreated 5 days with composition, disease and contrast groups not yet treated; for the numbers of white blood cell, Day 4 after chemotherapy: day 4 after cyclophosphamide, G-CSF on day 2 to day 4, composition twice daily 0.5-1.67 uL/mouse; for the numbers of white blood cell, Day 7 after chemotherapy: day 7 after cyclophosphamide; for the numbers of white blood cell, Day 10 after chemotherapy: day 10 after cyclophosphamide; for numbers of white blood cell (in words): disease group vs normal group, contrast group on day 7 and day 10, experimental group vs contrast group after chemotherapy
Excerpt: Furthermore, a common side effect of chemotherapy is a drop in the number of white blood cells, which leads to an increased risk of getting an infection. Currently, granulocyte colony stimulating factor (G-CSF) treatment can make white blood cell levels go up faster. However, patients may have one or more side effects of using G-CSF. To understand the effect of present pharmaceutical composition on white blood cells, cyclophosphamide-induced leukopenia experiment execute as follows: 6 to 7 week-old female rats (20-24 grams, ICR) were divided into normal group, disease group, contrast group and experimental group. In normal group, rats were not gave any medication. In disease, contrast and experimental group, rats were administered cyclophosphamide on day 0 to induce leukopenia. Besides, in contrast group, rats were also administered G-CSF on day 2 to day 4. In experimental group, rats were treated with presented pharmaceutical composition for 5 days before administered cyclophosphamide, and continuously treated for 10 days after administered cyclophosphamid. Therefore, the total days of presented pharmaceutical composition administered in experimental group is 15 days. The administered method of presented pharmaceutical composition is twice daily, and the dosage was 0.5-1.67 uL/mouse. The rats in each group were phlebotomized on day 0 before chemotherapy, and on day 4, day 7 and day 10 after chemotherapy.

| Molecule | tail flick latency [1] | heart weight ([2]; FIG. 8A) | liver weight ([2]; FIG. 8B) | spleen weight ([2]; FIG. 8C) | kidney weight ([2]; FIG. 8D) | the numbers of white blood cell, Day 0 before chemotherapy (white blood cells) | the numbers of white blood cell, Day 4 after chemotherapy (white blood cells) | the numbers of white blood cell, Day 7 after chemotherapy (white blood cells) | the numbers of white blood cell, Day 10 after chemotherapy (white blood cells) | numbers of white blood cell (in words) (white blood cells) |
| --- | --- | --- | --- | --- | --- | --- | --- | --- | --- | --- |
| CC(=O)O[C@H]1C(=O)[C@@]2(C)[C@H]([C@H](OC(=O)c3ccccc3)[C@]3(O)C[C@H](OC(=O)[C@H](O)[C@@H](NC(=O)c4ccccc4)c4ccccc4)C(C)=C1C3(C)C)[C@]1(OC(C)=O)CO[C@@H]1C[C@@H]2O [Taxol®] | lower | significantly heavier | significantly heavier | significantly heavier | significantly heavier |  |  |  |  |  |
| O=P1(N(CCCl)CCCl)NCCCO1 (stereo not drawn) [cyclophosphamide] |  |  |  |  |  | 887 | 56 | 333 | 772 | extremely reduced |
| B1 |  |  |  |  |  | 843 | 51 | 528 | 768 | increase |
